From PMC12169614, “Exploring Long Arm Amide-Linked Side Chains in the Design of Antifungal Azole Inhibitors of Sterol 14α-Demethylase (CYP51)” (Journal of Medicinal Chemistry, 2025)

Legend:
CaCYP51 Y132H + K143R = CaCYP51 Y132H + K143R (Candida albicans, UniProt P10613, K143R/Y132H); experiment: Reconstituted CYP51 activity assay, Y132H + K143R; format: biochemical, C. albicans; conditions: 1 μM CaCyp51, 50 μM lanosterol; duplicate, mean ± SD
Experimental: The reconstituted CYP51 assay previously described contained 1 μM CaCyp51, 2 μM Homo sapiens cytochrome P450 reductase and 50 μM lanosterol in a final volume of 500 μL. After the addition of azole in DMSO (2.5 μL), reactions were incubated at 37 °C for 10 min prior to initiation by the addition of 100 μL 20 mM β-NADPH-Na4. Sterol substrates and products were extracted with ethyl acetate, derivatized with N,O-bis(trimethylsilyl)-trifluoroacetamide (BSTFA)–trimethylchlorosilane (TMCS) (99:1) in the presence of anhydrous pyridine, and analyzed by GC/MS as described previously. IC50 determinations were performed in duplicate. Nonlinear regression of inhibitor concentration vs normalized response was calculated by GraphPad Prism 10.4.0 for Windows (GraphPad Software, Boston, Massachusetts, USA, www.graphpad.com).

Y2411 Endog. ScCYP51 = experiment: MIC80 determination, strain Y2411; format: cell-based, S. cerevisiae; conditions: Saccharomyces cerevisiae
Procedure, shortened: (§1)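 Inoculum OD600 0.005 (1.5 × 10^4 CFU); 30 °C, 200 rpm; 48 h S. cerevisiae, 24 h C. albicans; OD600 read-out; MIC80 from triplicates, 4-clone pools, 3 independent expts.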

[1] = test system: Y2300 ScCYP51 overexpressed; experiment: Agarose (disk) diffusion assay, strain Y2300; format: cell-based, S. cerevisiae; conditions: 10 nmol/disk, 30 °C, 48 h
From the text: (§2) Final compounds were screened as racemic mixtures using agarose diffusion assays to visualize their inhibitory activity against a panel of recombinant S. cerevisiae strains i.e., S. cerevisiae strains expressing control levels of wild-type CYP51 (ScCYP51), overexpressed wild-type ScCYP51, overexpressed azole-resistant ScCYP51 Y140F/H mutations and overexpressed C. albicans efflux pumps MDR1a or CDR1B (Figure and Table S1).
(§3) The susceptibilities of S. cerevisiae and Candida species strains to azole compounds were observed as zones of growth inhibition in agarose diffusion assays. The disk diffusion assays were carried out as described by Keniya et al. Complete supplement mixture (CSM) agarose (0.6% agarose [wt/vol]; 20 mL of synthetic defined medium (SD); pH 6.8–7) was solidified in a rectangular Petri dish which was overlaid with CSM agarose (0.6% [wt/vol]; 5 mL; pH 6.8–7) seeded with yeast cells at an optical density (OD600) of 0.008 (118,000 cells per 1 mL of overlay). Azole compounds (10 nmol/disk) were applied to sterile BBL paper disks (Becton Dickinson Co., Sparks, MD) and placed on solidified overlays. Cell growth was assessed after incubation at 30 °C for 48 h.

Y2374 OE CgCYP51 = experiment: MIC80 determination, strain Y2374; format: cell-based, S. cerevisiae; conditions: Saccharomyces cerevisiae
Procedure, shortened: as §1

Y2300 OE ScCYP51 = experiment: MIC80 determination, strain Y2300; format: cell-based, S. cerevisiae; conditions: Saccharomyces cerevisiae
Procedure, shortened: as §1

Y2766 OE CauCDR1 = experiment: MIC80 determination, strain Y2766; format: cell-based, S. cerevisiae; conditions: Saccharomyces cerevisiae
Experimental: (§4) Cells were seeded at an OD600 nm of 0.005 (1.5 × 10^4 CFU), and the plates were incubated at 30 °C with shaking at 200 rpm for 48 h for S. cerevisiae strains and 24 h for C. albicans . Cell growth was assessed by measuring the OD600 nm using a Synergy 2 multimode plate reader (BioTek Instruments, VT, USA). Each MIC80 was determined using triplicate measurements for pools of 4 clones of each strain in three separate experiments.

Y2769 OE CauCYP51 K143R = experiment: MIC80 determination, strain Y2769; format: cell-based, S. cerevisiae
Experimental: as §4

CYP3A4 = CYP3A4 (Homo sapiens, UniProt P08684); experiment: CYP IC50 profile, CYP3A4; format: biochemical; conditions: human liver drug metabolizing enzyme; read-out: CYP IC50 3A4
MCF-10A cells = experiment: Viability (CellTiter Blue) assay; format: cell-based, human; conditions: 48 h, 10 μM to 1 pM
Experimental: Human epithelial breast cells, MCF-10A, were routinely cultured in DMEM/F-12 (Fisher Scientific, Loughborough, UK) containing 5% heat-inactivated horse serum (ThermoFisher Scientific, UK), 20 ng/mL hEGF (Merck Life Science, Dorset, UK), 500 ng/mL hydrocortisone (Merck Life Science, Dorset, UK) and 10 μg/mL insulin (Merck Life Science, Dorset, UK) under tissue culture conditions (37 °C, 5% CO2 in a humidified incubator). Cells were passaged upon reaching confluency using 0.25% Trypsin/EDTA (Fisher Scientific, Loughborough, UK) for a maximum of 15 passages from defrosting. […].
Cells were seeded in 100 μL of complete medium per well in a black, flat-bottomed, 96-well tissue-culture-treated plate (Fisher Scientific, Loughborough, UK) at a density of 4000 cells/well and incubated under tissue culture conditions for 24 h. Cells were then treated by mixing in an additional 100 μL of drug/diluent control in complete medium to give final concentrations of 10 μM–1 pM. DMSO was used as a vehicle control, and as a positive toxic control, staurosporine was added at a final concentration of 10 μM. Cells were then incubated for 48 h under tissue culture conditions before the treatments were replaced with fresh media before performing the CellTiter Blue assay (Promega, Southampton, UK) was performed following the manufacturer's instructions. […]

Y610 FHB1 = experiment: MIC80 determination, C. albicans clinical isolate Y610 FHB1; format: cell-based; conditions: Candida albicans; C. albicans clinical isolate Y610 FHB1 (weakly expresses CaCDR1); pH 7, 24 h
Procedure, shortened: as §1

Y2765 OE CauMDR1 = experiment: MIC80 determination, strain Y2765; format: cell-based, S. cerevisiae; conditions: Saccharomyces cerevisiae
Experimental: as §4

Y2649 OE CYP51 F1 RaCPR = experiment: MIC80 determination, strain Y2649; format: cell-based, S. cerevisiae
Procedure, shortened: as §1

[2] = test system: Y2746 OE AfCYP51A AfCPR AfERG6; experiment: MIC80 determination, strain Y2746; format: cell-based, S. cerevisiae; conditions: Saccharomyces cerevisiae
Procedure, shortened: as §1

Y71 SC5314 = experiment: MIC80 determination, C. albicans clinical isolate Y71 SC5314; format: cell-based; conditions: Candida albicans
Procedure, shortened: as §1

[3] = test system: Y525 MFS efflux pump CaMDR1a overexpressed; experiment: Agarose (disk) diffusion assay, strain Y525; format: cell-based, S. cerevisiae; conditions: 10 nmol/disk, 30 °C, 48 h
From the text: as §2, §3

Chain of CaCYP51 Y132H + K143R (P10613 whole entry Y132H/K143R): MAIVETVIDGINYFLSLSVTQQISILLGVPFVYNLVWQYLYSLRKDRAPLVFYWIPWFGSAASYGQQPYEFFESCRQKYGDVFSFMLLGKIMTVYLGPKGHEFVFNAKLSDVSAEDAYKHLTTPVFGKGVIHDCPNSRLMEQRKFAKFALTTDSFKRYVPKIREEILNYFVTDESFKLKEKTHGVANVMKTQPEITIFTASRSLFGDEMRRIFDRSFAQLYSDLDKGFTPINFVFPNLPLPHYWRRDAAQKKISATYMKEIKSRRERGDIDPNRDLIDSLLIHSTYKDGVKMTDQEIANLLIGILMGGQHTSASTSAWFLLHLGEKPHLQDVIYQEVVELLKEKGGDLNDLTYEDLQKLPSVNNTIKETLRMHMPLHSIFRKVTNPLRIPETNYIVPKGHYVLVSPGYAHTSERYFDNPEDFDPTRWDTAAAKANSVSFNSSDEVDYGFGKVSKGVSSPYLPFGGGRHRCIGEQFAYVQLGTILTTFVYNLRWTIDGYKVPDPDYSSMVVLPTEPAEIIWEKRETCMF
Chain of CYP3A4 (P08684 whole entry): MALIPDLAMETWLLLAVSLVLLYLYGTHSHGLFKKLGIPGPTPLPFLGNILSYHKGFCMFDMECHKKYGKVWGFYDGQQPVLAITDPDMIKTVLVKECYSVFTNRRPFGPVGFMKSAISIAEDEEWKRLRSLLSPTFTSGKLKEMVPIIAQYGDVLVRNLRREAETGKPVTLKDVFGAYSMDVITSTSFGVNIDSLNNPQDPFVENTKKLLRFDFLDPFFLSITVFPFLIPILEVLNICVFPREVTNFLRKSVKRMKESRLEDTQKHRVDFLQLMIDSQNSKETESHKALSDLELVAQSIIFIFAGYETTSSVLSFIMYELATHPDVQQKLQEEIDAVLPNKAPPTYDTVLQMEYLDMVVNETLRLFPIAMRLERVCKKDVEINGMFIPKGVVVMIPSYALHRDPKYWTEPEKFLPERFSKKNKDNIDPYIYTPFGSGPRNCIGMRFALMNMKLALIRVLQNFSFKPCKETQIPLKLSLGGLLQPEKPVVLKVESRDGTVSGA

## O=C(NCC(O)(Cn1cncn1)c1ccc(F)cc1F)c1ccc(-c2ccc(OC(F)(F)F)cc2)cc1 (stereo not drawn) [Compound 22, N-(2-(2,4-Difluorophenyl)-2-hydroxy-3-(1H-1,2,4-triazol-1-yl)propyl)-4’-(trifluoromethoxy)-[1,1’-biphenyl]-4-carboxamide]
CaCYP51 Y132H + K143R
  IC50: 8.49 ± 1.27 µM
Y2411 Endog. ScCYP51; strain Y2411 Endog. ScCYP51, SD pH 6.8, 30 °C, 48 h
  MIC80: 0.03 ± 0.023 µM
Y2411 Endog. ScCYP51; supplement csv, read-out: MIC (nM) S. cerevisiae Y2411
  MIC: 30 ± 23 nM
[1]
  zone of growth inhibition (inhibitory activity in words): visible reduction in potency
Y2374 OE CgCYP51
  MIC80: 0.101 µM
Y2374 OE CgCYP51; read-out: MIC (nM) C. glabrate model Y2374
  MIC: 101 nM
Y2300 OE ScCYP51; 48 h, pH 6.8
  MIC80: 0.114 ± 0.014 µM
Y2300 OE ScCYP51; read-out: MIC (nM) S. cerevisiae Y2300
  MIC: 114 ± 14 nM
Y2766 OE CauCDR1
  MIC80: 20.9 µM
Y2769 OE CauCYP51 K143R; Candidozyma auris, read-out: MIC (nM) C. auris model Y2769
  MIC: 225 ± 33 nM
Y2769 OE CauCYP51 K143R; Saccharomyces cerevisiae
  MIC80: 0.225 ± 0.033 µM
CYP3A4
  IC50: 1.62 ± 0.23 µM
MCF-10A cells
  cell viability (tolerance in words): very well tolerated
Y610 FHB1
  MIC80: 0.153 ± 0.067 µM
Y2765 OE CauMDR1
  MIC80: 0.059 ± 0.014 µM
Y2649 OE CYP51 F1 RaCPR; Rhizopus arrhizus, read-out: MIC (nM) R. arrhizus model Y2649
  MIC: 470 ± 240 nM
Y2649 OE CYP51 F1 RaCPR; Saccharomyces cerevisiae
  MIC80: 0.47 ± 0.24 µM
[2]
  MIC80: 12.4 µM
Y71 SC5314; SC5314, supplement csv
  MIC: 40 nM
Y71 SC5314; C. albicans clinical isolate Y71 SC5314, pH 7, 24 h
  MIC80: 0.04 µM
[3]
  zone of growth inhibition (inhibitory activity in words): no effect on its potency
